Earlier results as cited in patent US20070015926A1, “Method of preparing R-(+)-alpha-lipoic acid and its salt” (Nanjing Rally Biochemical Inc., priority 2005, published 2007).

Details: if given adequate oxygen

polymerization: susceptible to be polymerized
SMILES: O=C(O)CCCC[C@@H]1CCSS1 [R-(+)-α-Lipoic Acid]
